Laboratory results as given in PMC6401105, “Dual role of the Anopheles coluzzii Venus Kinase Receptor in both larval growth and immunity” (Scientific Reports, 2019).

Legend:
[1] = molecular target: T1, Anopheles VKR (AgVKR; VKR^WT) (Anopheles gambiae, UniProt C5H7S1); test: GVBD of Xenopus oocytes expressing VKR; anti-phosphotyrosine Western blot; format: cell-based; conditions: agonist; VFT domain; ND96 medium pH 7.4, 19 °C, 18 h; not an EC50
T1 sequence (C5H7S1 26-1465): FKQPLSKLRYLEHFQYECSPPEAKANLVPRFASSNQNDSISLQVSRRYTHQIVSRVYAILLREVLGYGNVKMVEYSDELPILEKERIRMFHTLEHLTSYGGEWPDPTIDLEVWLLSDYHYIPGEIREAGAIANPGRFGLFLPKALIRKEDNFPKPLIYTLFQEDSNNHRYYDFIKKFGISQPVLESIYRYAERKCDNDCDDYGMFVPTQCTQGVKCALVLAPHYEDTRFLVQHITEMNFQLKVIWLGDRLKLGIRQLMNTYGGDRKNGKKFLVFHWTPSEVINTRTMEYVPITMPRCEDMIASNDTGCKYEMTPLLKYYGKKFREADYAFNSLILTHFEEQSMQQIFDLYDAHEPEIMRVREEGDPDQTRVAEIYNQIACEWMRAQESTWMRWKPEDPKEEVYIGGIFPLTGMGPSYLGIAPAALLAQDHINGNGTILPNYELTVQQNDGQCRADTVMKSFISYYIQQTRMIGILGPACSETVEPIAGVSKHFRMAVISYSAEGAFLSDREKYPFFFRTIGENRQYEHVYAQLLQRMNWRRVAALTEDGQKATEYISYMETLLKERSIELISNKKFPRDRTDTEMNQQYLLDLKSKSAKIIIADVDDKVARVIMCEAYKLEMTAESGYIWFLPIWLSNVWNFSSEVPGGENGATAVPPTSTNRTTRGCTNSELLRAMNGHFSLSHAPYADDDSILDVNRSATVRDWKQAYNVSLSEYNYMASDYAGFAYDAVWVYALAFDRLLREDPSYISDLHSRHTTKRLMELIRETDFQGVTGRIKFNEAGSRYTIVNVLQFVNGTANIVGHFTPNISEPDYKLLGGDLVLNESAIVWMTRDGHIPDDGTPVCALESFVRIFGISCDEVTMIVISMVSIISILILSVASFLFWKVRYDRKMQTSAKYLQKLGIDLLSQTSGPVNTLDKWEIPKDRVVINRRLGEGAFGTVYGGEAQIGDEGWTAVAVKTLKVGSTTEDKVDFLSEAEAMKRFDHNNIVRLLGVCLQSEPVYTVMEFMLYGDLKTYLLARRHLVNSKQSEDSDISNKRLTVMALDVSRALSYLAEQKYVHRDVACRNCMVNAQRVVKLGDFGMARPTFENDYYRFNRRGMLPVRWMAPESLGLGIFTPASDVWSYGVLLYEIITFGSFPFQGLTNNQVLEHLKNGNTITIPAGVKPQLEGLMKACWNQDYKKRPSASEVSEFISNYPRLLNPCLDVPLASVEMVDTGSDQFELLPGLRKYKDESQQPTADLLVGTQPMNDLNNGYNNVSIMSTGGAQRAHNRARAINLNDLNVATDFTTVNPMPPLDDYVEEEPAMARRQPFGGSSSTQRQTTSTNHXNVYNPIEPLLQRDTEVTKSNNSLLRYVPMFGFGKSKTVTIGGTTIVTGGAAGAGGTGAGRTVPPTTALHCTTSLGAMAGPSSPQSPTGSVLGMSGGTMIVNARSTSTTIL

[2] = molecular target: T1, Anopheles VKR (AgVKR; VKR^WT); test: GVBD of Xenopus oocytes expressing VKR; format: cell-based; conditions: agonist; VFT domain; ND96 medium pH 7.4, 19 °C, 18 h; not an EC50

| Compound | minimal concentration to induce GVBD [1] | minimal concentration to induce GVBD [2] |
| --- | --- | --- |
| N=C(N)NCCC[C@H](N)C(=O)O [L-Arg] | 1 µM | – |
| N[C@@H](CS)C(=O)O [L-Cys] | – | 1 mM |
